Laboratory results reported in patent US6610681B1, “Neurotherapeutic clavulanate composition and method” (Revaax Pharmaceuticals, LLC, priority 1999, dated 2003).
Entries after “also recorded” stand apart in the source; their conditions may differ.

Tests used:
[1] = system: male Syrian golden hamsters; experiment: golden hamster seed finding model of anxiety; assay type: in vivo, Mesocricetus auratus
Description: Clavulanic acid (CLAV) is structurally similar to the beta-lactam antibiotics. A most robust and simple bioassay for screening beta-lactams for CNS activity is the golden hamster seed finding model of anxiety. Briefly, hamsters are deprived of food overnight. The following day they are exposed to the additional stress of being taken from their home cage and placed in a novel environment for a few minutes. This manipulation stimulates the release of the stress hormone cortisol (FIG. 13). During their absence from the home cage, sunflower seeds are hidden under the bedding in one of the corners. When returned to the home cage, hamsters routinely scramble along the walls for 1-2 min before settling down, locating and eating the seeds. However, animals treated with the benzodiazepine anxiolytic chlordiazepoxide find seeds in less than 10 sec.
Male, Syrian golden hamsters (Mesocricetus auratus) (120-130 g) obtained from Harlan Sprague-Dawley Laboratories (Indianapolis, Ind.) were housed individually in Plexiglas cages (24 cm×24 cm×20 cm), maintained on a reverse light:dark cycle (14L: 10D; lights on at 19:00 hr) and provided food and water ad libitum. A range of concentrations of CLAV (saline vehicle, 0.1, 1.0, 10, 100 1,000 ng/kg) were tested in six groups of hamsters (4-8/group)(FIG. 1). All tests were conducted during the dark phase of the circadian cycle under dim red illumination. Prior to testing all animals were fasted for 20-24 hrs. Ninety min after intraperitoneal (IP) injection of drug, animals were taken from their home cage and placed into a holding cage for 2 min. During their absence, six sunflower seeds were buried under the bedding in one corner of their home cage. Animals were placed back into their home cage randomly facing any one of the empty corners and timed for their latency to find the seeds in a five min observation period. Latency times were analyzed with a one-way ANOVA followed by Scheffe's post hoc tests. Assumption of equal variances was tested (Hartley's F-max=2.1 p>0.05)
It was hypothesized that CLAV functioned as an anxiolytic in the seed finding assay by blocking NAALADase activity in the brain. If this notion were true then it would be predicted that drugs known to block NAALADase should also enhance seed finding. To this end, animals were treated with N-acetyl-beta-aspartyl-glutamic acid (beta-NAAG), a competitive inhibitor of NAALADase (Serval et al., 1992) and tested in the seed finding model of anxiety. The study was similar to that outlined in Section I with one notable exception. […] Beta-NAAG (FW 304) was given in a dose of 3 ng in a volume of 1 μl saline ICV. The average adult hamster brain weights ca. 1.2 g of which 22% is extracellular fluid. The estimated beta-NAAG concentration was 11 ng/ml or 36 nM.
Two groups of six animals each were fasted overnight as previously described and tested the following day. One group was treated with beta-NAAG and the other saline vehicle and one hr later timed for latency to find the hidden sunflower seeds. A Student t-test for unpaired data was used for statistical comparisons.

rats = experiment: Morris water maze, cue navigation; assay type: in vivo, rat
Description: On the day following the last day (Day 4) of spatial navigation, animals were tested for cue navigation. In these tests, the platform was raised above water level. One hr before testing animals were treated with CLAV or saline vehicle. The same animals treated with CLAV during spatial navigation were treated with CLAV for cue navigation. Animals were run through a series of two min trials with 45 min between trials. At each trial, the platform was moved to a different quadrant. The cue navigation study was identical to the spatial navigation except the platform was visible and the testing was done over five consecutive trials done on a single day. Animals were scored for latency to find the platform, percent time spent in each quadrant, path distance and swim speed for all testing periods.

[2] = system: stress-induced release of cortisol; experiment: novelty test, stress-induced release of cortisol; assay type: in vivo, hamster; conditions: 10 μg/kg IP
Description: The simple procedure of placing an adult male hamster into a novel environment for 5 min causes a significant, predictable increase in blood levels of cortisol (Weinberg and Wong 1986). This novelty test was used to assess the effects of CLAV on stress-induced release of cortisol. Two groups of male hamsters were treated IP with either CLAV (10 μg/kg, n=6), or saline vehicle (n=4). A third group (n=4) received no treatment or isolation stress and served as a control for basal levels of cortisol. Sixty min after treatment animals were taken from their home cage and placed into a novel cage for 5 min. Afterwards animals were sacrificed by decapitation and trunk blood collected for radioimmunoassay of cortisol. All animals were tested under reverse light:dark conditions four hrs into the dark cycle. Data were compared with a one-way ANOVA followed by Fisher PLSD post hoc tests.

male golden hamsters = experiment: resident/intruder paradigm of offensive aggression; assay type: in vivo, hamster
Description: Agonistic behavior can be classified as either offensive or defensive aggression (Blanchard and Blanchard, 1977; Adams, […]; Albert and Walsh, 1984). Offensive aggression is characterized by an aggressor initiating an attack on an opponent; while, defensive aggression lacks active approach. Both types of aggression have their own unique neurobehavioral systems. The stimuli that elicit offensive and defense attack are different, as are the sequences of behaviors that accompany each agonistic response. […] Offensive aggression is easily studied using male golden hamsters tested in a resident/intruder paradigm, an established model of offensive aggression (Ferris and Potegal 1988) in the context of defending the home burrow. Placing an unfamiliar male hamster into the home cage of another male hamster elicits a well-defined sequence of agonistic behaviors from the resident that includes offensive aggression.
Hamsters are nocturnal and as such all behavioral tests were performed during the first four hrs of the dark phase under dim red illumination. The resident was scored for offensive aggression, e.g., latency to bite the intruder, the total number of bites, total contact time with the intruder and flank marking over a 10 min test period (Ferris and Potegal, 1988). Flank marking is a form of olfactory communication in which a hamsters arches its back and rubs pheromone producing flank glands against objects in the environment (Johnston, 1986).
Five male golden hamsters (130-140 g) were given IP injections of CLAV (200 μg/kg) and saline vehicle in a volume of ca. 0.2 ml. […] Vehicle and CLAV treatments were counter balanced and randomized so all five animals received each treatment separated by at least 48 hrs. Animals were tested 90 min after treatment over a 10 min observation period. Latencies and contact time were analyzed with a two-way ANOVA. Non-parametric data, i.e., number of bites and flank marks were analyzed by Wilcoxon matched-pairs signed-ranks test.
The animals tested in this study were those used in Section IX. After the seed finding assay, beta-NAAG (n=6) and saline vehicle (n=6) treated animals remained in their home cage and were presented with a smaller, male intruder. The resident was scored for latency to bite, bites, contact time and flank marking over a 10 min observation period. Latency to bite and contact time between treatments were compared with Student t-tests. Non-parametric measures of bites and flank marks for beta-NAAG vs vehicle were compared with Mann-Whitney.

neurogenic NAALADase = experiment: animal tests of neuroactivity, effective dose; assay type: in vivo, hamsters and other test species
[3] = system: gram negative beta-lactamase enzymes; conditions: cited from earlier work

In the case of `O=C(O)[C@H]1/C(=C/CO)O[C@@H]2CC(=O)N21` [CLAV, clavulanic acid], the “latency to find the sunflower seeds vs vehicle” value ([1]; 1 ng/kg IP, 90 min) is reported as “not significantly different from vehicle control”, the “estimated concentration in extracellular water at the 10 ng/kg dose” value ([1]; 1.25 ng in 27.5 ml) is reported as 0.045 ng/ml and about 200 pM and the “effective dose (maximal efficacy) in the seed finding test” value ([1]; IP) is reported as 0.01 µg/kg. The “latency to find the sunflower seeds” value ([1]; doses of 10 ng and above, IP, 90 min, vehicle 104 sec) was “less than 8.0 sec”, the “estimated concentration in the brain at the 10 ng/kg dose” value ([1]; from CSF/plasma ratio 0.25) was “around 50 pM” and the “percentage of time spent in each quadrant vs vehicle” value (rats; any quadrant on any trial) was “no significant difference between treatments”. For the same compound, the “latency to find the platform” value (rats; visible platform, five trials) was “no main effect for treatments”, the “distance traveled to find the platform” value (rats; vs vehicle) was “not significantly different” and the “effect on stress release of cortisol (summary)” value [2] was “no ostensible effect on the release of cortisol”. The “blood level of cortisol vs untreated, non-stressed control” value ([2]; 60 min, novel cage 5 min) was “more than twice the blood level of cortisol”, the “antiaggressive properties (summary)” value (male golden hamsters; 200 μg/kg) was “modest antiaggressive or serenic-like properties” and the “contact time with the intruder” value (male golden hamsters; 200 μg/kg IP, 90 min) was “no significant main effect for drug treatment”. For the same compound, the flank marking behavior (male golden hamsters; 200 μg/kg IP, 90 min) was “unaffected; also recorded: no significant effect of drug treatment”, the “latency to bite the intruder” value (male golden hamsters; 200 μg/kg IP, 90 min, trend toward significance) was “no significant main effect for drug treatment” and the “median number of bites” value (male golden hamsters; 200 μg/kg IP, 90 min, vehicle thirteen) was “six”. For the same compound, the “aggressive behavior, pilot studies” value (male golden hamsters; IP at 1.0 μg/kg) was “no effect on aggressive behavior”, the “dose effective to inhibit neurogenic NAALADase” value (neurogenic NAALADase; i.p.) was “less than 1 microgram per kilogram of body weight” and the “dose showing activity similar to moxalactam (aggression, spatial learning, anxiolytic)” value (neurogenic NAALADase; i.p.) was “less than 1 microgram/kg”. The “dose exhibiting dose responsive neuroactivity” value (neurogenic NAALADase; levels as low as) was 0.01 µg/kg and the “inhibition of gram negative beta-lactamase enzymes” value [3] was 15 to 34 nM.
For `CO[C@@]1(NC(=O)C(C(=O)O)c2ccc(O)cc2)C(=O)N2C(C(=O)O)=C(CSc3nnnn3C)CO[C@@H]21` (stereo partly drawn) [Moxalactam, 7-β-[2-carboxy-2-(4-hydroxyphenyl)acetamido]-7α-methoxy-3-[[(1-methyl-1H-tetrazol-5-yl)thio]methyl]-1-oxa-1-dethia-3-cephem-4-carboxylic acid], the “change of seed finding time” value ([1]; dose not given) was “reduction in seed finding time from minutes to seconds”, the aggression (male golden hamsters; i.p. at 50 micrograms/kg, hamster) was “inhibits aggression in hamster” and the “dose exhibiting significant dose responsive neuroactivity” value (neurogenic NAALADase; administered parenterally) was “about 50 μg/kg of body weight”. The threshold effective dose (neurogenic NAALADase; administered parenterally) was “about 50 βg/kg of body weight”, the “effective minimum neurogenic protease inhibiting concentration in the brain” value (neurogenic NAALADase; based on animal test data and known brain distribution) was “about 30 nM” and the minimum effective dose (neurogenic NAALADase; parenterally, hamsters and other test species) was “about 50 micrograms per kg of body weight”.
